Data reported in US7309698B2, “Compositions for delivering bisphosphonates” (Emisphere Technologies, Inc., priority 2001, dated 2007).
Several values for one entry are separate records, joined by “and”; a condition that tells them apart may be missing. Identical values can stand only once.

Tests used:
[1] = Solubility of delivery agent compound; format: physicochemical; conditions: 350 µl 2N NaOH + 650 µl water, aqueous buffer, thermodynamic from solid; 200 mg+350 μl 2N NaOH+650 μl H2O, pH=7.67
Experimental: The reaction mixture was warmed to 25° C. and stirred for 64 hours. The volatiles were removed in vacuo. The residue was stirred in 2N aqueous sodium hydroxide for one hour and acidified with 2M aqueous sulfuric acid. The solid was recrystallized twice from ethanol/water to give a tan solid. Isolation by filtration afforded 53.05 g of (52% yield) of 2-(4-(N-salicyloyl) aminophenyl) propionic acid. Solubility: 200 mg/mL (200 mg+350 μl 2N NaOH+650 μl H2O, pH=7.67). Anal. Calculated: C=67.36, H=5.3, N=4.91. Found: C=67.05, H=5.25, N=4.72.
A solution of 53.05 g (0.186 mol) of 2-(4-(N-salicyloyl)aminophenyl) propionic acid and 300 mL of ethanol was treated with 7.59 g (0.190 mol) of NaOH dissolved in 22 mL of water. The reaction mixture was stirred for 30 minutes at 25° C. and for 30 minutes at 0° C. The resulting pale yellow solid was isolated by filtration to give 52.61 g of sodium 2-(4-(N-salicyloyl) aminophenyl) propionate. Solubility: 200 mg/mL clear solution, pH=6.85. Anal. Calculated: C=60.45, H=5.45, N=3.92, Na=6.43. Found: C=60.84, H=5.87, N=3.85, Na=6.43. Melting point 236-238° C.

SMILES	melting point	solubility [1] [mg/mL]
CC(C(=O)[O-])c1ccc(NC(=O)c2ccccc2O)cc1.[Na+] (stereo not drawn) [Compound 4 Sodium Salt, Sodium 2-(4-(N-salicyloyl)aminophenyl)propionate]	236 to 238 °C	
CC(C(=O)O)c1ccc(NC(=O)c2ccccc2O)cc1 (stereo not drawn) [Compound 4, 2-(4-(N-salicyloyl)aminophenyl)propionic acid]		200
O=C(O)CCCCCCCOc1ccccc1O [Compound 7, 8-(2-Hydroxyphenoxy)octanoic acid]	65 to 68 °C and 60 to 64 °C	
